In patent publication US5380359A, “Cosmetics based on naturally derived melanin-coated pigments” (Kyowa Hakko Kogyo Co., Ltd., priority 1992, dated 1995):

Experiment: Anti-oxidizing property: lipid peroxide elimination rate (Determiner LPO, cumene hydroperoxide)
Type: biochemical
Conditions: concentration of 0.014%
Method: Purified water was added to 0.1 g of microbial melanin, synthetic melanin or sepia melanin and 0.1 g of sodium hydroxide to prepare 100 ml of solution, and the pH was adjusted to 7 with hydrochloric acid.
To 0.1 g of dl-α-tocopherol was added ethanol to prepare 100 ml of solution.
To 0.1 g of ascorbic acid was added purified water to prepare 100 ml of solution.
To 5.02 mg of an 80% cumene hydroperoxide (hereinafter abbreviated to CPO) solution was added purified water to prepare 100 ml of solution (264 nmol/ml).
The microbial melanin solution, the ascorbic acid solution, the dl-α-tocopherol solution, the synthetic melanin solution or the sepia melanin solution was added to a system in which CPO was reacted with a methylene blue derivative in the presence of hemoglobin as a catalyst, using Determiner LPO (product of Kyowa Medex Co., Ltd.) as a reaction reagent, thereby producing an equimolar amount of methylene blue which developed the color of the system. The anti-oxidizing property of the microbial melanin, ascorbic acid, dl-α-tocopherol, the synthetic melanin and the sepia melanin was determined on the basis of the degree of inhibition of the production of methylene blue. […]
In the equation, As indicates the absorbance of the test sample, Astd the absorbance of the standard sample, and AB the absorbance of the blank test sample. […]

| SMILES | Lipid peroxide elimination rate [%] |
| --- | --- |
| Cc1c(C)c2c(c(C)c1O)CCC(C)(CCCC(C)CCCC(C)CCCC(C)C)O2 (racemic) [dl-α-tocopherol] | 72.4 |
| O=C1O[C@H]([C@@H](O)CO)C(O)=C1O [Ascorbic acid, ascorbic acid] | 97.4 |
